Experiments:
Microsporum canis = experiment: Contact fungicidal screen, Microsporum canis; type: cell-based; conditions: 0.1M NaOAc pH 4.6
Procedure: (§1) The organisms used in the Contact Fungicidal Screen are a dermatophyte, trychophyton mentagrophytes, frequently associated with athlete's foot; a yeast, Candida albican, causative agent of thrush and vaginitis; a phycomycete, Rhizopus oryzae, commonly known as black bread mold; an ascomycete, Aspergillus fumagatis, found in chicken droppings and causing lung infections; and another dermatophyte, Microsporum canis, which causes ringworm. These organisms are maintained as stock cultures at 4° C. on agar […] of the following composition: dextrose 2%, Neopeptone (Difco) 1%, agar 2%. Fluid medium of the same nutrient composition (without agar) was used to test the viability of the organisms after exposure to the fungicide. This medium is also known as Sabouraud's medium. Sabouraud's agar plate cultures of Aspergillus fumigatus, Microsporum canis, and a different culture of Trychophyton mentagrophytes are prepared by planting an inoculum at the center of an agar plate and incubating at 25°-30° C. for seven to ten days. The mycelial mats are removed from the surface of the agar and prepared in the same manner as the Rhizopus culture. The compounds are weighed into heat sterilized 100 ml volumetric flasks and immediately before screening dissolved in 0.1 M NaOAc pH 4.6 buffer (test solutions). The Aspergillus, Candida, Microsporum and Rhizopus species are screened in a slightly different manner. Basically, the procedure for the Contact Germicidal Efficiency Screen is utilized. After the test solutions are made up, 5 ml aliquots are pipetted into heat sterilized 25 ml glass stoppered erlenmeyer flasks. The screen is initiated when 0.5 ml of the 5×10^6 cell (spore) per ml suspension is added to the flask containing 5 ml of the test solution. […] The subculture tubes are incubated at 25°-30° C. for ten days with daily observation for mycelial growth. The earliest subculture time at which no growth is present is considered the endpoint and is recorded as the sterilization time. To insure the viability of the culture, a 0.5 ml aliquot of the 5×10^6 cells (spores) per ml suspension is transferred to 5 ml of the pH 4.6 buffer. A loopful of the inoculated buffer is then subcultured to 7 ml of fluid Sabouraud's medium and incubated at 25°-30° C. for ten days. To insure that the dilution of the test solution into the subculture medium does stop the action, a loopful of the test solution and a loopful of the inoculated buffer are transferred into the same subculture tube. This tube is also incubated at 25°-30° C. for ten days.

Candida albican = experiment: Contact fungicidal screen, Candida albican; type: cell-based; conditions: 0.1M NaOAc pH 4.6
Procedure: (§2) The organisms used in the Contact Fungicidal Screen are a dermatophyte, trychophyton mentagrophytes, frequently associated with athlete's foot; a yeast, Candida albican, causative agent of thrush and vaginitis; a phycomycete, Rhizopus oryzae, commonly known as black bread mold; an ascomycete, Aspergillus fumagatis, found in chicken droppings and causing lung infections; and another dermatophyte, Microsporum canis, which causes ringworm. These organisms are maintained as stock cultures at 4° C. on agar slants of the following composition: dextrose 2%, Neopeptone (Difco) 1%, agar 2%. Fluid medium of the same nutrient composition (without agar) was used to test the viability of the organisms after exposure to the fungicide. This medium is also known as Sabouraud's medium.
The Candida albican is grown in Sabouraud's liquid medium at 25°-30° C. for three days. At the end of the incubation period the cell suspension is centrifuged at 200 G and washed with sterile physiological saline (0.85% NaCl). The density of the cell suspension is determined by counting in a hemacytometer. The suspension is stored a 4° C. until it is used, at which time it is diluted with sterile physiological saline to a density of 5×10^6 cells per ml.
(§3) The compounds are weighed into heat sterilized 100 ml volumetric flasks and immediately before screening dissolved in 0.1 M NaOAc pH 4.6 buffer (test solutions).
(§4) The Aspergillus, Candida, Microsporum and Rhizopus species are screened in a slightly different manner. Basically, the procedure for the Contact Germicidal Efficiency Screen is utilized. After the test solutions are made up, 5 ml aliquots are pipetted into heat sterilized 25 ml glass stoppered erlenmeyer flasks. The screen is initiated when 0.5 ml of the 5×10^6 cell (spore) per ml suspension is added to the flask containing 5 ml of the test solution. At intervals of 0.5, 2.5, 5.0, 10.0 and 15.0 minutes, a 4 mm loopful of the inoculated test solution is subcultured into 7 mL of sterile fluid Sabouraud's medium and mixed on a vortex, the high dilution serving to stop the action of the compound. The subculture tubes are incubated at 25°-30° C. for ten days with daily observation for mycelial growth. The earliest subculture time at which no growth is present is considered the endpoint and is recorded as the sterilization time.
(§5) To insure the viability of the culture, a 0.5 ml aliquot of the 5×10^6 cells (spores) per ml suspension is transferred to 5 ml of the pH 4.6 buffer. A loopful of the inoculated buffer is then subcultured to 7 ml of fluid Sabouraud's medium and incubated at 25°-30° C. for ten days. To insure that the dilution of the test solution into the subculture medium does stop the action, a loopful of the test solution and a loopful of the inoculated buffer are transferred into the same subculture tube. This tube is also incubated at 25°-30° C. for ten days.

Aspergillus fumigatus = experiment: Contact fungicidal screen, Aspergillus fumigatus; type: cell-based; conditions: 0.1M NaOAc pH 4.6
Procedure: as §1

Rhizopus oryzae = experiment: Contact fungicidal screen, Rhizopus oryzae; type: cell-based; conditions: 0.1M NaOAc pH 4.6
Procedure: as §2
[…]. The mycelial mat is removed from the surface of the agar using a sterile spatula. It is transferred to a heat sterilized glass tissue grinder and macerated with 25 ml of sterile physiological saline. The suspension is then filtered through sterile glass wool. The density of the sporangia spore suspension is determined by counting in a hemacytometer. The suspension is stored at 4° C. until it was used, at which time it was diluted with sterile physiological saline to a density of 5×10^6 spores per ml.
as §3, §4, §5

[1] = system: Gram-positive and Gram-negative organisms; conditions: cited from earlier work
pseudomonas organisms = conditions: cited from earlier work
[2] = animal tests; cited from earlier work
Gram-negative organisms = conditions: cited from earlier work
[3] = Stability of chloroamino acids in pH 4 acetate buffer at 34° C.; type: physicochemical; conditions: for half-life: read-out: Stability (t1/2) (converted)
Description: The effect of this distance on stability in aqueous medium is illustrated in the following table.

CC(C)(CCCCC(=O)O)N(Cl)Cl [(VI), 6-Dichloroamino-6-methyl-heptanoic acid]
Sterilization Time (Microsporum canis; 10 PPM): 10.0 min
Sterilization Time (Microsporum canis; 100 PPM): 2.5 min
Sterilization Time (Microsporum canis; 1000 PPM): 0.5 min
Sterilization Time (Candida albican; 10 PPM): 15 min
Sterilization Time (Candida albican; 100 PPM): 2.5 min
Sterilization Time (Candida albican; 1000 PPM): 0.5 min
Sterilization Time (Aspergillus fumigatus; 10 PPM): 15 min
Sterilization Time (Aspergillus fumigatus; 100 PPM): 15 min
Sterilization Time (Aspergillus fumigatus; 1000 PPM): 5.0 min
Sterilization Time (Rhizopus oryzae; 10 PPM): 15 min
Sterilization Time (Rhizopus oryzae; 100 PPM): 15 min
Sterilization Time (Rhizopus oryzae; 1000 PPM): 15 min

[H]/N=C(\N/C(=N/[H])NCCCCCCNC(=N)NC(=N)Nc1ccc(Cl)cc1)Nc1ccc(Cl)cc1 [Chlorhexidine]
activity against Gram-positive and Gram-negative organisms [1]: generally effective against Gram-positive and Gram-negative oganisms
activity against pseudomonas organisms (pseudomonas organisms): not effective against pseudomonas organisms

Oc1c(Cl)cc(Cl)c(Cl)c1Cc1c(O)c(Cl)cc(Cl)c1Cl [Hexachlorophene]
neurotoxicity [2]: caused neurotoxicity
activity against Gram-negative organisms (Gram-negative organisms): ineffective against Gram-negative organisms

CC(C)(CCC(=O)O)N(Cl)Cl [Z = CH2 CH2]
half-life [3]: 57 days

CC(C)(CC(=O)O)N(Cl)Cl [Z = CH2]
half-life [3]: 1.21 days

CC(C)(C(=O)O)N(Cl)Cl [Z = nothing]
Stability (in words) [3]: violent decomposition

CC(C)(COC(=O)CCC(=O)O)N(Cl)Cl [drawing 17]
half-life [3]: 300 days
